Results published in patent publication US20250304549A1, “HYDROXYAMIDE DERIVATIVE AND USE THEREOF” (SICHUAN HUIYU PHARMACEUTICAL CO., LTD., priority 2022, published 2025).
Where a name gives a salt, the structure may show the parent alone.

How the values were obtained:
pan-HDAC = assay: In vitro enzyme inhibition assay - HDAC (HDAC-Glo I/II), pan-HDAC; assay type: biochemical
Summary of the method: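 Eight compound concentrations (5-fold gradient; 1 mM DMSO stock) were assayed by HDAC-Glo I/II luminescence. IC50 was obtained by four-parameter fitting.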

HDAC8 = HDAC8 (Homo sapiens (Human), UniProt Q9BY41); assay: In vitro enzyme inhibition assay - HDAC (HDAC-Glo I/II), HDAC8; assay type: biochemical; settings: read-out: HDAC IC50 (nM) HDAC 8
Sequence of HDAC8 (Q9BY41 whole entry): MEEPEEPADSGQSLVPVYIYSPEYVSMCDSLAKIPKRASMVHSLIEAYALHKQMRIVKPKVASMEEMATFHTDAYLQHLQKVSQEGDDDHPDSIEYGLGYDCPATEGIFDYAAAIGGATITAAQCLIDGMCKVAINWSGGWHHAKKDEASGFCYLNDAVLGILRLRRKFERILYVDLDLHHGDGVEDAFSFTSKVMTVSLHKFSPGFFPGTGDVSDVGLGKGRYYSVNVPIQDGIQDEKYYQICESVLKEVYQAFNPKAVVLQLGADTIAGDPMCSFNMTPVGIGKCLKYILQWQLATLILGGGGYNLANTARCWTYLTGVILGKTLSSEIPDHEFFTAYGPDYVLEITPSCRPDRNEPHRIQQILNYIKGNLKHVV
Procedure: 2. In Vitro Enzyme Inhibition Assay—HDAC
The effect of the compound on the enzymatic activity of pan-HDAC and two isoforms (HDAC1 and HDAC8) was examined using the HDAC-Glo I/II Assay and Screening System assay to assess the level of inhibition of HDAC protease activity and selectivity in each isoform. The proteins and detection reagents were from the HDAC-Glo™ I/II Assay and Screening System (Promega). A 1 mM stock solution of the compound was prepared in DMSO and diluted in a 5-fold gradient to create a series of 8 concentrations, and a specific volume of the highest concentration was diluted 25 times with HDAC Buffer to obtain 4× working solution of the compound. […] The 384-well plate was then read on a multifunctional microplate reader, with the Luminescence channel selected to record Luminescence values (RLU). The inhibition rate was calculated using the following formula: […]
Note: ‘Negative’ refers to the group without the inhibitor; ‘Blank’ refers to the group without the enzyme.
The IC50 value was calculated by fitting the inhibition rate by GraphPad Prism software, employing log (inhibitor) vs. response-Variable Slope (four parameters) model.

LSD1 = LSD1 (Homo sapiens (Human), UniProt O60341); assay: In vitro enzyme inhibition assay - LSD1 (HTRF); assay type: biochemical
NCI-H69 cells = assay: In vitro cell inhibition assay - NCI-H69 cell proliferation (CellTiter-Glo); assay type: cell-based; settings: Homo sapiens, NCI-H69, H69 small cell lung cancer cell proliferation
Summary of the method: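 Cells seeded at 1×10^3 per well and incubated overnight at 37° C., 5% CO2, then treated with 8-point 5-fold compound dilutions in RPMI-640 with 20% FBS for 7 days. Viable cells measured by CellTiter-Glo luminescence; IC50 fitted from inhibition relative to no-inhibitor and no-cell controls.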

NCI-H1417 cells = assay: In vitro cell inhibition assay - H1417 cell proliferation (CellTiter-Glo); assay type: cell-based; settings: Homo sapiens, NCI-H1417, H1417 small cell lung cancer cell proliferation
Summary of the method: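 Cells exposed to 8 compound concentrations (5-fold dilutions) in BEGM with 10% FBS for 7 days at 37° C., 5% CO2. Viable cells measured by CellTiter-Glo luminescence; inhibition versus no-inhibitor and no-cell controls, IC50 fitted.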

Structure (SMILES)	IC50 (pan-HDAC) [nM]	IC50 (HDAC8) [nM]	IC50 (LSD1) [nM]	IC50 (NCI-H69 cells) [nM]	IC50 (NCI-H1417 cells) [nM]
CNc1ccc(-c2cnc(N3CCC(NCc4ccc(CCC(=O)NO)cn4)CC3)c(C#N)c2-c2ccc(C#N)c(F)c2)cc1O [Example 194, 3-(6-((1-(3-Cyano-4-(4-cyano-3-fluorophenyl)-5-(3-hydroxy-4-(methylamino)phenyl)pyridin-2-yl)piperidin-4-yl)amino)methyl) pyridin-3-yl)-N-hydroxypropanamide hydrochloride]	7.27	543	1.09	1030	119
CC(C)(O)COc1ccc(-c2cnc(N3CCC(NCc4cnc(CCC(=O)NO)s4)CC3)c(C#N)c2-c2ccc(C#N)c(F)c2)cc1O [Example 185, 3-(5-((1-(3-Cyano-4-(4-cyano-3-fluorophenyl)-5-(3-hydroxy-4-(2-hydroxy-2-methylpropoxy)phenyl)pyridin-2-yl)piperidin-4-yl)amino)methyl)thiazol-2-yl)-N-hydroxypropanamide formate]	60.1	2160	3.9	275	6.16
N#Cc1ccc(-c2c(-c3ccc(C(F)(F)F)c(O)c3)cnc(N3CCC(NCc4cnc(/C=C/C(=O)NO)nc4)CC3)c2C#N)cc1F [Example 186, (E)-3-(5-(((1-(3-Cyano-4-(4-cyano-3-fluorophenyl)-5-(3-hydroxy-4-(trifluoromethyl)phenyl)pyridin-2-yl)piperidin-4-yl)amino)methyl)pyrimidin-2-yl)-N-hydroxyacrylamide formate]	11.9	50.9	10.2	85	23.5
COc1ccc(-c2cnc(N3CCC(NCCOc4ccc(C(=O)NO)cc4)CC3)c(C#N)c2-c2ccc(C#N)c(F)c2)cc1O [Example 164, 4-(2-[(1-(3-Cyano-4-(4-cyano-3-fluorophenyl)-5-(3-hydroxy-4-methoxyphenyl)pyridin-2-yl)piperidin-4-yl)amino]ethoxy)-N-hydroxybenzamide formate]	38.1	332	0.44	432	2.66
CN(C)c1ccc(-c2cnc(N3CCC(NCc4ccc(/C=C/C(=O)NO)cc4)CC3)c(C#N)c2-c2ccc(C#N)c(F)c2)cc1O [Example 153, (E)-3-(4-(((1-(3-Cyano-4-(4-cyano-3-fluorophenyl)-5-(4-(dimethylamino)-3-hydroxyphenyl)pyridin-2-yl)piperidin-4-yl)amino)methyl)phenyl)-N-hydroxyacrylamide formate]	5.49	400	0.74	65.5	6.21
COc1cc(O)c(-c2cnc(N3CCC(NCc4ccc(/C=C/C(=O)NO)cc4)CC3)c(C#N)c2-c2ccc(C#N)c(F)c2)cc1O [Example 158, (E)-3-(4-(((1-(3-Cyano-4-(4-cyano-3-fluorophenyl)-5-(2,5-dihydroxy-4-methoxyphenyl)pyridin-2-yl)piperidin-4-yl)amino)methyl)phenyl)-N-hydroxyacrylamide trifluoroacetate]	0.61	87.8	0.73	250	93.6
Cc1c(O)cc(-c2cnc(N3CCC(NCc4ccc(/C=C/C(=O)NO)cc4)CC3)c(C#N)c2-c2ccc(C#N)c(F)c2)cc1F [Example 161, (E)-3-(4-(((1-(3-Cyano-4-(4-cyano-3-fluorophenyl)-5-(3-fluoro-5-hydroxy-4-methylphenyl)pyridin-2-yl)piperidin-4-yl)amino)methyl)phenyl)-N-hydroxyacrylamide formate]	6.83	304	0.58	65	3.13
COc1c(O)cc(-c2cnc(N3CCC(NCc4ccc(/C=C/C(=O)NO)cc4)CC3)c(C#N)c2-c2ccc(C#N)c(F)c2)cc1F [Example 168, (E)-3-(4-(((1-(3-Cyano-4-(4-cyano-3-fluorophenyl)-5-(3-fluoro-5-hydroxy-4-methoxyphenyl)pyridin-2-yl)piperidin-4-yl)amino)methyl)phenyl)-N-hydroxyacrylamide formate]	7.35	250	1.34	65.6	5.23
COc1ccc(-c2cnc(N3CCC(N)(CCc4ccc(/C=C/C(=O)NO)cc4)CC3)c(C#N)c2-c2ccc(C#N)c(F)c2)cc1O [Example 86, (E)-3-(4-(2-(4-amino-1-(3-cyano-4-(4-cyano-3-fluorophenyl)-5-(3-hydroxy-4-methoxyphenyl)pyridin-2-yl)piperidin-4-yl)ethyl)phenyl)-N-hydroxyacrylamide formate]	13.8	578	9.46	145	15.4
COc1ccc(-c2c(C#N)cc(N3CCC(NCc4cnc(/C=C/C(=O)NO)nc4)CC3)nc2-c2ccc(C#N)c(F)c2)cc1O [Example 234, (E)-3-(5-(((1-(4-Cyano-6-(4-cyano-3-fluorophenyl)-5-(3-hydroxy-4-methoxyphenyl)pyridin-2-yl)piperidin-4-yl)amino)methyl)pyrimidin-2-yl)-N-hydroxyacrylamide formate]	13.3	51.1	1.08	77.6	15
COc1ccc(-c2cnc(N3CCC(NCc4ccc(CCC(=O)NO)c(C#N)c4)CC3)c(C#N)c2-c2ccc(C#N)c(F)c2)cc1O [Example 193, 3-(2-Cyano-4-((1-(3-cyano-4-(4-cyano-3-fluorophenyl)-5-(3-hydroxy-4-methoxyphenyl)pyridin-2-yl)piperidin-4-yl)amino)methyl) phenyl)-N-hydroxypropanamide formate]	8.36	297	1.71	221	12.6
COc1ccc(-c2cnc(N3CCC(NCc4ccc(CCC(=O)NO)cc4)CC3)c(C)c2-c2ccc(C#N)c(F)c2)cc1O [Example 209, 3-(4-(((1-(4-(4-Cyano-3-fluorophenyl)-5-(3-hydroxy-4-methoxyphenyl)-3-methylpyridin-2-yl)piperidin-4-yl)amino)methyl)phenyl)-N-hydroxypropanamide hydrochloride]	163	3.09	0.6	40.3	14.5
COc1ccc(-c2cnc(N3CCC(NCc4ccc(OC(C)C(=O)NO)cc4)CC3)c(C#N)c2-c2ccc(C#N)c(F)c2)cc1O (stereo not shown) [Example 183, 2-(4-(((1-(3-Cyano-4-(4-cyano-3-fluorophenyl)-5-(3-hydroxy-4-methoxyphenyl)pyridin-2-yl)piperidin-4-yl)amino)methyl)phenoxy)-N-hydroxypropanamide formate]	970	3720	0.09	742	1.49
N#Cc1ccc(-c2c(-c3ccc(C(F)(F)F)c(O)c3)cnc(N3CCC(NCc4ccc(CCC(=O)NO)cc4)CC3)c2C#N)cc1F [Example 190, 3-(4-((1-(3-Cyano-4-(4-cyano-3-fluorophenyl)-5-(3-hydroxy-4-(trifluoromethyl)phenyl)pyridin-2-yl)piperidin-4-yl)amino)methyl) phenyl)-N-hydroxypropanamide formate]	5.96	336	2.85	93.4	7.33
